Target: T1, G protein-coupled receptor-91 (GPR91) (Rattus norvegicus, UniProt Q6IYF9)
T1 construct: gene Sucnr1
Experiment: cell-based

T1 sequence (Q6IYF9 whole entry): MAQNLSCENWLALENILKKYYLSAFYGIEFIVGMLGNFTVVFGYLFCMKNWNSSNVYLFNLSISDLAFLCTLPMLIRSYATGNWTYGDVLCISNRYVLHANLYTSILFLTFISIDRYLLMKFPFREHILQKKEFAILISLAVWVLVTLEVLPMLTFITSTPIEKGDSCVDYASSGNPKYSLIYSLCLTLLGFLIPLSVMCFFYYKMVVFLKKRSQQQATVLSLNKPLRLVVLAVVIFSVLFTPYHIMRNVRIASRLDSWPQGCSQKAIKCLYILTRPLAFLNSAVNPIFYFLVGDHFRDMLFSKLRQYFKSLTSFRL

- EC50: 154 µM
SMILES: O=C(O)CCC(=O)O [succinate]

— publication PMC5986788, “Succinate induces aberrant mitochondrial fission in cardiomyocytes through GPR91 signaling” (Cell Death & Disease, 2018)
